According to ChEMBL document CHEMBL3112431, “Constrained TRPV1 agonists synthesized via silver-mediated intramolecular azo-methine ylide cycloaddition of α-iminoamides” (Bioorg Med Chem Lett, 2014):
Calls of active or inactive are those of the source. The rule behind the calls is not given here.

Molecular target: Transient receptor potential cation channel subfamily V member 1 (Rattus norvegicus) (UniProt O35433)
Assay: Agonist activity at TRPV1 in rat dorsal root ganglia neurons by 45Ca2+ uptake assay

Transient receptor potential cation channel subfamily V member 1 (Rattus norvegicus), sequence (O35433 whole entry): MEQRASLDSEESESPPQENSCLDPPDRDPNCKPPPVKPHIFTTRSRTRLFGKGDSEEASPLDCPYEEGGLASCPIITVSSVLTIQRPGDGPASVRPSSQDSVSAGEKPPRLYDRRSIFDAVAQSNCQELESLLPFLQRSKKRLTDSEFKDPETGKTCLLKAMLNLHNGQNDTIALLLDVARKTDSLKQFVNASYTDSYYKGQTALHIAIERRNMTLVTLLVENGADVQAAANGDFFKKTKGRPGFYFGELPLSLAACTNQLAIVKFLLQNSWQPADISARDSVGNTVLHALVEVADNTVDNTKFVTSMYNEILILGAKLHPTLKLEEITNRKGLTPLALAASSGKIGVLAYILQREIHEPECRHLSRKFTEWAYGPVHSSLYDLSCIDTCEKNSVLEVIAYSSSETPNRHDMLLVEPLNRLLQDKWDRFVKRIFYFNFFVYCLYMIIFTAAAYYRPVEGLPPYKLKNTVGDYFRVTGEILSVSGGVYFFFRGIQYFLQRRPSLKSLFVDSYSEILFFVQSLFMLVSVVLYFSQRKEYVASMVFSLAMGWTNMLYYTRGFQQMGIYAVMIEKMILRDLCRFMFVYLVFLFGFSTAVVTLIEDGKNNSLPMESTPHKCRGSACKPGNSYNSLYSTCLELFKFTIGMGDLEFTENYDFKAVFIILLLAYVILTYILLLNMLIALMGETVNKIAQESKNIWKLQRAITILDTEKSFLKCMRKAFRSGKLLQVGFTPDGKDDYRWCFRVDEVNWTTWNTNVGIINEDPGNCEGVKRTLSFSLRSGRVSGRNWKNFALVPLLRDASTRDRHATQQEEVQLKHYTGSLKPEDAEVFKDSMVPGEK

**Q.** For `CCOC(=O)[C@H]1[C@H]2COc3ccc(Cl)cc3[C@@H]2N2C(=O)c3ccc(C)cc3NC(=O)[C@@]12C`, which Activity is on record?
**A.** The Activity was “Active”.

**Q.** `COc1cc(CNC(=O)CCCC/C=C/C(C)C)ccc1O` was tested. Which Activity did it give?
**A.** The Activity was “Active”.

Molecular target: Transient receptor potential cation channel subfamily V member 1 (Rattus norvegicus) (UniProt O35433)
Assay: Partial agonist activity at TRPV1 in rat dorsal root ganglia neurons by 45Ca2+ uptake assay

**Q.** With `CCOC(=O)[C@@H]1[C@H]2COc3ccc(OC)cc3[C@@H]2N[C@]1(C)C(=O)Nc1cc(C)ccc1C(=O)OC` as the molecule, how does the Activity read?
**A.** Its Activity is “Active”.

**Q.** Which Activity does the source give for `CCOC(=O)[C@@H]1[C@H]2COc3ccc(Cl)cc3[C@@H]2N[C@]1(C)C(=O)Nc1cc(C)ccc1C(=O)OC` here?
**A.** The Activity was “Active”.

**Q.** `CCOC(=O)[C@@H]1[C@H]2COc3ccc(F)cc3[C@@H]2N[C@]1(C)C(=O)Nc1cc(C)ccc1C(=O)OC` was tested. Which Activity did it give?
**A.** The Activity was “Active”.

**Q.** `CCOC(=O)[C@@H]1[C@H]2COc3c(F)cccc3[C@@H]2N[C@]1(C)C(=O)Nc1cc(C)ccc1C(=O)OC` was tested. Which Activity did it give?
**A.** Its Activity is “Active”.
